These results are taken from PubChem BioAssay AID328 (DTP/NCI, 2004).

“And” between values parts separate entries of the source, which are not always exact repeats. Equal values may be shown once. Toxic doses and inconclusive results are not listed.

For the experiment, the system named is BDF1 mice, P388 leukemia ip, median survival T/C. Kind of experiment: NCI In Vivo Anticancer Drug Screen. Data for tumor model P388 Leukemia (intraperitoneal) in B6D2F1 (BDF1) mice. The note with it: endpoint: median survival time, higher = longer survival. An outline of the steps: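 T/C = treated-group survival ÷ vehicle-control survival; tumour transplanted into mice before dosing.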

[1] abbreviates: dose: 100.0 mg/kg/injection, schedule: Q01DX009 (ip), vehicle: water.
Where [2] appears, read: dose: 100.0 mg/kg/injection, schedule: Q04DX003 (ip), vehicle: water.
The mark [3] stands for this setting: dose: 200.0 mg/kg/injection, schedule: Q01DX009 (ip), vehicle: water.
The mark [4] stands for this setting: dose: 200.0 mg/kg/injection, schedule: Q04DX003 (ip), vehicle: water.
Setting [5] is: dose: 400.0 mg/kg/injection, schedule: Q01DX009 (ip), vehicle: water.
Setting [6] is: dose: 400.0 mg/kg/injection, schedule: Q04DX003 (ip), vehicle: water.
The mark [7] stands for this setting: dose: 12.5 mg/kg/injection, schedule: Q01DX009 (ip), vehicle: saline with Tween-80.
The mark [8] stands for this setting: dose: 25.0 mg/kg/injection, schedule: Q01DX009 (ip), vehicle: saline with Tween-80.
[9] abbreviates: dose: 50.0 mg/kg/injection, schedule: Q01DX009 (ip), vehicle: saline with Tween-80.
[10] abbreviates: dose: 100.0 mg/kg/injection, schedule: Q01DX009 (ip), vehicle: saline.

Turning to `Cn1c[n+](C)ccc1=O`, the T/C is 97 % of control under setting [1]; 91 % of control under setting [2]; 107 % of control under setting [3]; 88 % of control under setting [4]; 97 % of control under setting [5]; 89 % of control under setting [6].
Take `CCOC(=O)c1c[nH]c2ccccc2c1=O`: the T/C (dose: 100.0 mg/kg/injection, schedule: Q04DX002 (ip), vehicle: saline) is 107 % of control; the T/C (dose: 200.0 mg/kg/injection, schedule: Q04DX002 (ip), vehicle: saline) is 111 % of control; the T/C (dose: 400.0 mg/kg/injection, schedule: Q04DX002 (ip), vehicle: saline) is 102 % of control.
For `CCCCCCCCCCCCCC(=O)O[C@@H]1[C@@H](C)[C@@]2(O)[C@@H](C=C(CO)C[C@]3(OC)C(=O)C(C)=C[C@@H]23)[C@@H]2C(C)(C)[C@]12OC(C)=O`, the T/C (dose: 0.03 mg/kg/injection, schedule: Q01DX009 (ip), vehicle: saline + alcohol) is 91 % of control; the T/C (dose: 0.06 mg/kg/injection, schedule: Q01DX009 (ip), vehicle: Klucel (hydroxypropylcellulose) (HPC)) was 91 % of control; the T/C (dose: 0.06 mg/kg/injection, schedule: Q01DX009 (ip), vehicle: saline + alcohol) is 94 % of control; the T/C (dose: 0.12 mg/kg/injection, schedule: Q01DX009 (ip), vehicle: Klucel (hydroxypropylcellulose) (HPC)) is 94 % of control; the T/C (dose: 0.12 mg/kg/injection, schedule: Q01DX009 (ip), vehicle: saline + alcohol) is 117 % of control; the T/C (dose: 0.25 mg/kg/injection, schedule: Q01DX009 (ip), vehicle: Klucel (hydroxypropylcellulose) (HPC)) was 94 % of control. Further, the T/C runs as follows: (dose: 0.25 mg/kg/injection, schedule: Q01DX009 (ip), vehicle: saline + alcohol) 94 % of control; (dose: 0.5 mg/kg/injection, schedule: Q01DX009 (ip), vehicle: Klucel (hydroxypropylcellulose) (HPC)) 110 % of control; (dose: 0.5 mg/kg/injection, schedule: Q01DX009 (ip), vehicle: saline + alcohol) 107 % of control; (dose: 1.0 mg/kg/injection, schedule: Q01DX009 (ip), vehicle: Klucel (hydroxypropylcellulose) (HPC)) 94 % of control; (dose: 1.0 mg/kg/injection, schedule: Q01DX009 (ip), vehicle: saline + alcohol) 100 % of control; (dose: 3.1 micrograms/kg/injection, schedule: Q01DX009 (ip), vehicle: gum acacia) 106 % of control. Further, the T/C is 94 % of control (dose: 3.1 micrograms/kg/injection, schedule: Q01DX009 (ip), vehicle: saline + alcohol); 87 % of control (dose: 3.1 micrograms/kg/injection, schedule: Q01DX009 (ip), vehicle: saline with Tween-80); 97 % of control (dose: 6.2 micrograms/kg/injection, schedule: Q01DX009 (ip), vehicle: gum acacia); 87 % of control (dose: 6.2 micrograms/kg/injection, schedule: Q01DX009 (ip), vehicle: saline + alcohol); 97 % of control (dose: 6.2 micrograms/kg/injection, schedule: Q01DX009 (ip), vehicle: saline with Tween-80); 87 % of control (dose: 12.5 micrograms/kg/injection, schedule: Q01DX009 (ip), vehicle: gum acacia). Moreover, the T/C (dose: 12.5 micrograms/kg/injection, schedule: Q01DX009 (ip), vehicle: saline + alcohol) was 94 % of control; the T/C (dose: 12.5 micrograms/kg/injection, schedule: Q01DX009 (ip), vehicle: saline with Tween-80) was 160 % of control; the T/C (dose: 25.0 micrograms/kg/injection, schedule: Q01DX009 (ip), vehicle: saline + alcohol) is 103 % of control; the T/C (dose: 25.0 micrograms/kg/injection, schedule: Q01DX009 (ip), vehicle: saline with Tween-80) is 103 % of control; the T/C (dose: 50.0 micrograms/kg/injection, schedule: Q01DX009 (ip), vehicle: gum acacia) is 122 % of control; the T/C (dose: 50.0 micrograms/kg/injection, schedule: Q01DX009 (ip), vehicle: saline + alcohol) was 101 % of control. Besides, the T/C is 87 % of control (dose: 50.0 micrograms/kg/injection, schedule: Q01DX009 (ip), vehicle: saline with Tween-80); 106 % of control (dose: 100.0 micrograms/kg/injection, schedule: Q01DX009 (ip), vehicle: gum acacia); 97 % of control (dose: 100.0 micrograms/kg/injection, schedule: Q01DX009 (ip), vehicle: saline + alcohol); 122 % of control (dose: 100.0 micrograms/kg/injection, schedule: Q01DX009 (ip), vehicle: saline with Tween-80); 113 % of control (dose: 200.0 micrograms/kg/injection, schedule: Q01DX009 (ip), vehicle: gum acacia); 97 % of control (dose: 200.0 micrograms/kg/injection, schedule: Q01DX009 (ip), vehicle: saline + alcohol). Also, the T/C is, setting by setting: (dose: 200.0 micrograms/kg/injection, schedule: Q01DX009 (ip), vehicle: saline with Tween-80) 106 % of control; (dose: 400.0 micrograms/kg/injection, schedule: Q01DX009 (ip), vehicle: gum acacia) 160 % of control; (dose: 400.0 micrograms/kg/injection, schedule: Q01DX009 (ip), vehicle: saline + alcohol) 94 % of control; (dose: 400.0 micrograms/kg/injection, schedule: Q01DX009 (ip), vehicle: saline with Tween-80) 94 % of control; (dose: 800.0 micrograms/kg/injection, schedule: Q01DX009 (ip), vehicle: gum acacia) 94 % of control; (dose: 800.0 micrograms/kg/injection, schedule: Q01DX009 (ip), vehicle: saline + alcohol) 106 % of control. For the same molecule, the T/C (dose: 800.0 micrograms/kg/injection, schedule: Q01DX009 (ip), vehicle: saline with Tween-80) is 169 % of control.
Regarding `O=C(O)CCSc1nc2ccccc2s1`, the T/C is 100 % of control (dose: 50.0 mg/kg/injection, schedule: Q04DX003 (ip), vehicle: Klucel (hydroxypropylcellulose) (HPC)); 100 % of control (dose: 100.0 mg/kg/injection, schedule: Q04DX003 (ip), vehicle: Klucel (hydroxypropylcellulose) (HPC)); 113 % of control (dose: 200.0 mg/kg/injection, schedule: Q04DX003 (ip), vehicle: Klucel (hydroxypropylcellulose) (HPC)).
As for `Cc1cc2nc(Oc3ccccc3)nc(=O)n2c(C)n1`, the T/C is, setting by setting: under setting [7], 109 % of control; under setting [8], 114 % of control; under setting [9], 97 % of control.
Regarding `Nc1ncnc2nc[nH]c12.[Cl][Pt][Cl]`, the T/C was 114 % of control under setting [1]; 93 % of control under setting [2]; 118 % of control under setting [3]; 98 % of control under setting [4]; 104 % of control under setting [5]; 98 % of control under setting [6].
For `O=C1NC(=O)C(c2ccc(C(F)(F)F)cc2)(c2ccc(C(F)(F)F)cc2)N1`, the T/C under setting [7] is 104 % of control; the T/C under setting [8] was 90 % of control; the T/C under setting [9] is 113 % of control; the T/C (dose: 100.0 mg/kg/injection, schedule: Q04DX003 (ip), vehicle: saline with Tween-80) was 90 % of control; the T/C (dose: 200.0 mg/kg/injection, schedule: Q04DX003 (ip), vehicle: saline with Tween-80) was 90 % of control; the T/C (dose: 400.0 mg/kg/injection, schedule: Q04DX003 (ip), vehicle: saline with Tween-80) is 104 % of control.
Consider `OC(c1ccc(Cl)cc1)C1CCNCC1` (stereo not given), for which the T/C reads like this: (dose: 50.0 mg/kg/injection, schedule: Q01DX009 (ip), vehicle: saline) 90 % of control; under setting [10], 102 % of control.
Take `O=P(CCCl)(OCCCl)N1CCCCC1` (stereo not given): the T/C runs as follows: (dose: 50.0 mg/kg/injection, schedule: Q04DX003 (ip), vehicle: saline) 104 % of control; under setting [10], 104 % of control; (dose: 100.0 mg/kg/injection, schedule: Q04DX003 (ip), vehicle: saline) 108 % of control; (dose: 200.0 mg/kg/injection, schedule: Q01DX009 (ip), vehicle: saline) 104 % of control; (dose: 400.0 mg/kg/injection, schedule: Q01DX009 (ip), vehicle: saline) 109 % of control.
As to `Nc1nc(F)nc2c1ncn2C1OC(CO)C(O)C1O` (stereo not given), the T/C is 90 % of control and 108 % of control (dose: 0.5 mg/kg/injection, schedule: Q01DX010 (ip), vehicle: saline); 100 % of control and 108 % of control (dose: 1.0 mg/kg/injection, schedule: Q01DX010 (ip), vehicle: saline); 110 % of control and 120 % of control (dose: 2.0 mg/kg/injection, schedule: Q01DX010 (ip), vehicle: saline); 105 % of control and 112 % of control (dose: 4.0 mg/kg/injection, schedule: Q01DX010 (ip), vehicle: saline).
